Measured values: patent US20260085053A1, “BENZOFURAN DERIVATIVES AS SIK INHIBITORS AND THE USE THEREOF” (BEONE MEDICINES I GMBH, priority 2023, published 2026)

Legend:
[1] = target: T1, SIK1 kinase (aa1-303, Thermo Fisher) (Homo sapiens, UniProt P57059); assay: Biochemical activities determination for SIK1 protein (TR-FRET); conditions: 110 uM ATP, 0.5 μM STK1 substrate
T1 construct: SIK1 kinase (aa1-303, Thermo Fisher); purchased Thermo Fisher
Protocol: 1. Biochemical Activities Determination for SIK1 Protein
(§1) Compounds were tested for inhibition of SIK1 kinase (aa1-303, Thermo Fisher) in assays based on the time-resolved fluorescence-resonance energy transfer (TR-FRET) methodology. The assays were carried out in 384-well low volume white plates in a reaction mixture containing SIK1 kinase, 110 uM ATP, 0.5 μM STK1 substrate and 0-10 μM compound in buffer containing 25 mM Tris, 0.01% Trition X-100, 0.5 mM EGTA, 5 mM MgCl2, 2.5 mM DTT, pH=7.5. The kinase was incubated with compounds for 60 minutes at room temperature and the reaction was initiated by the addition of ATP and STK1 substrate. After reaction at room temperature for 180 minutes, an equal volume of stop/detection solution was added according to the manufacture's instruction (CisBio Bioassays). The stop/detection solution contained STK Antibody-Cryptate and XL665-conjugated streptavidin (Cat: 62ST1PEC, Cisbio) in Detection Buffer (Cat: 62SDBRDF, Cisbio). Plates were sealed and incubated at room temperature for overnight, and the TR-FRET signals (ratio of fluorescence emission at 665 nm over emission at 620 nm with excitation at 337 nm wavelength) were recorded on a PHERAstar FS plate reader (BMG Labtech). Phosphorylation of STK1 substrate led to the binding of STK Antibody-Cryptate to the biotinylated SIK1 substrate, which places fluorescent donor (Eu^3+ crypate) in close proximity to the accepter (Streptavidin-XL665), thus resulting in a high degree of fluorescence resonance energy transfer from the donor fluorophore (at 620 nm) to the acceptor fluorophore (at 665 nm). […] The IC50 for each compound was derived from fitting the data to the four-parameter logistic equation by Dotmatics.

[2] = target: T2, SIK2 kinase (full length, Thermo Fisher) (Homo sapiens, UniProt Q9H0K1); assay: Biochemical activities determination for SIK2 protein (TR-FRET); conditions: 80 uM ATP, 0.5 μM substrate
T2 construct: SIK2 kinase (full length, Thermo Fisher); purchased Thermo Fisher
T2 sequence (Q9H0K1 whole entry): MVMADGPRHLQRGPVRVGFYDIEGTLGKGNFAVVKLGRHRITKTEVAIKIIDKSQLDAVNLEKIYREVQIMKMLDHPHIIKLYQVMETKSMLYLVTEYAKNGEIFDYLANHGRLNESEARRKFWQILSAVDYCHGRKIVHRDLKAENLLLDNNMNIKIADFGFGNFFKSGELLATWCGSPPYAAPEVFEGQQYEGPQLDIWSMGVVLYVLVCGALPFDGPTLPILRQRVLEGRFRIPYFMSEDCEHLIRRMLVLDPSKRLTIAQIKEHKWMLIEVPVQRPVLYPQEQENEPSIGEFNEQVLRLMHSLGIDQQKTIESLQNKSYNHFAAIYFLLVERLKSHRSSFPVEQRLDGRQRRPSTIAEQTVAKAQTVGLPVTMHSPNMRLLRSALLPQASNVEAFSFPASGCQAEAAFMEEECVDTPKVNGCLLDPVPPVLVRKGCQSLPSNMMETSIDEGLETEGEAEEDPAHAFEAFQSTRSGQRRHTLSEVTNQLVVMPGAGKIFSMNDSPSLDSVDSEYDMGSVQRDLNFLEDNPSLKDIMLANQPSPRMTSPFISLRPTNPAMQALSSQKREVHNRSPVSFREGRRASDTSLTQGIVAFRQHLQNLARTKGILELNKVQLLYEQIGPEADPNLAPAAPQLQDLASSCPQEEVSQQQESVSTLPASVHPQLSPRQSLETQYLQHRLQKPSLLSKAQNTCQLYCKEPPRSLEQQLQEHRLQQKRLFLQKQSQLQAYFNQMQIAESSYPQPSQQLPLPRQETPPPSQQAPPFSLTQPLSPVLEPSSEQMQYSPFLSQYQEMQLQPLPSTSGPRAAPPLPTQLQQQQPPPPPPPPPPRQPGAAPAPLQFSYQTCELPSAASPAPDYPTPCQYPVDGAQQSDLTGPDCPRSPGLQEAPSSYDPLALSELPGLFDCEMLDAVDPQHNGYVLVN
Protocol: 2. Biochemical Activities Determination for SIK2 Protein
as §1, with “of SIK2” for “of SIK1”, “kinase (full length,” for “kinase (aa1-303,”, “containing SIK2” for “containing SIK1”, “kinase, 80” for “kinase, 110”, “μM […]” for “μM STK1”, “biotinylated STK1” for “biotinylated SIK1”

[3] = target: T3, SIK3 kinase (aa59-365, Thermo Fisher) (Homo sapiens, UniProt Q9Y2K2); assay: Biochemical activities determination for SIK3 protein (TR-FRET); conditions: 125 uM ATP, 0.5 μM STK1 substrate
T3 construct: SIK3 kinase (aa59-365, Thermo Fisher); purchased Thermo Fisher
T3 sequence (Q9Y2K2 59-365): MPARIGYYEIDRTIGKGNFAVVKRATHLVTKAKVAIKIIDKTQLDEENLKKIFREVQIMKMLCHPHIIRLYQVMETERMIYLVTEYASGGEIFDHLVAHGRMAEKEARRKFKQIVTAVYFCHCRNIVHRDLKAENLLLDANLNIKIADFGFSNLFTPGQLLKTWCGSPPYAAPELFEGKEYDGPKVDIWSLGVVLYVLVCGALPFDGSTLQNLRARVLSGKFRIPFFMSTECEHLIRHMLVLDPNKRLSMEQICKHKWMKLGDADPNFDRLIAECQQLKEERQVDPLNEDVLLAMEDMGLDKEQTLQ
Protocol: 3. Biochemical Activities Determination for SIK3 Protein
Compounds were tested for inhibition of SIK3 kinase (aa59-365, Thermo Fisher) in assays based on the time-resolved fluorescence-resonance energy transfer (TR-FRET) methodology. The assays were carried out in 384-well low volume white plates in a reaction mixture containing SIK3 kinase, 125 uM ATP, 0.5 μM STK1 substrate and 0-10 μM compound in buffer containing 25 mM Tris, 0.01% Trition X-100, 0.5 mM EGTA, 5 mM MgCl2, 2.5 mM DTT, PH=7.5. The kinase was incubated with compound for 60 minutes at room temperature and the reaction was initiated by the addition of ATP and STK1 substrate. After reaction at room temperature for 180 minutes, an equal volume of stop/detection solution was added according to the manufacture's instruction (CisBio Bioassays). The stop/detection solution contained STK Antibody-Cryptate and XL665-conjugated streptavidin (Cat: 62ST1PEC, Cisbio) in Detection Buffer (Cat: 62SDBRDF, Cisbio). Plates were sealed and incubated at room temperature for overnight, and the TR-FRET signals (ratio of fluorescence emission at 665 nm over emission at 620 nm with excitation at 337 nm wavelength) were recorded on a PHERAstar FS plate reader (BMG Labtech). Phosphorylation of STK1 substrate led to the binding of STK Antibody-Cryptate to the biotinylated STK1 substrate, which places fluorescent donor (Eu^3+ crypate) in close proximity to the accepter (Streptavidin-XL665), thus resulting in a high degree of fluorescence resonance energy transfer from the donor fluorophore (at 620 nm) to the acceptor fluorophore (at 665 nm). […] The IC50 for each compound was derived from fitting the data to the four-parameter logistic equation by Dotmatics.

T1 sequence (P57059 1-303): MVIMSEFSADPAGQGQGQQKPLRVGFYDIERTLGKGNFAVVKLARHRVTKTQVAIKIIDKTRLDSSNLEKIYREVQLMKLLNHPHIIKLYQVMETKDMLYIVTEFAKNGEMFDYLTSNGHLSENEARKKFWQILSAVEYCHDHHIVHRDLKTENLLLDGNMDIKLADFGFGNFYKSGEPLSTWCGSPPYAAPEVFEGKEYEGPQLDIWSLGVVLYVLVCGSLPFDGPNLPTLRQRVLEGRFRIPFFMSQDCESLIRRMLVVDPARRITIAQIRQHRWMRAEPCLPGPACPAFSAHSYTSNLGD

Structure (SMILES) | IC50 [1] [nM] | IC50 [2] [nM] | IC50 [3] [nM]
COc1cc(-c2coc3cc(OCCN4CCCC4)ccc23)cc(OC(F)F)c1C(=O)NC1CCCCC1N (racemic) [Compound 124, N-(2-aminocyclohexyl)-2-(difluoromethoxy)-6-methoxy-4-(6-(2-(pyrrolidin-1-yl)ethoxy)benzofuran-3-yl)benzamide] | 1220 | 18 | 161
COc1cc(-c2coc3cc(OCCN4CCCC4)ccc23)cc(OC(F)F)c1C(=O)NC1CCCC1N (racemic) [Compound 130, N-(2-aminocyclopentyl)-2-(difluoromethoxy)-6-methoxy-4-(6-(2-(pyrrolidin-1-yl)ethoxy)benzofuran-3-yl)benzamide] | > 10000 | 103 | 359
COc1cc(-c2coc3cc(OCCN4CCCC4)ccc23)cc(OC(F)F)c1C(=O)NC1CC1N (racemic) [Compound 131, N-(2-aminocyclopropyl)-2-(difluoromethoxy)-6-methoxy-4-(6-(2-(pyrrolidin-1-yl)ethoxy)benzofuran-3-yl)benzamide] | > 10000 | 653 | 1560
COc1cc(-c2coc3cc(-c4cn(C)nc4C)ccc23)cc2c1C(=O)N(CC(F)(F)F)CC2 [Compound 15, 6-(6-(1,3-dimethyl-1H-pyrazol-4-yl)benzofuran-3-yl)-8-methoxy-2-(2,2,2-trifluoroethyl)-3,4-dihydroisoquinolin-1 (2H)-one] | 6040 | 95 | 174
COc1cc(-c2coc3cc(-c4cn(C)nc4C(F)(F)F)ccc23)cc2c1C(=O)N(CC(F)(F)F)CC2 [Compound 16, 8-methoxy-6-(6-(1-methyl-3-(trifluoromethyl)-1H-pyrazol-4-yl)benzofuran-3-yl)-2-(2,2,2-trifluoroethyl)-3,4-dihydroisoquinolin-1 (2H)-one] | > 10000 | 3350 | 5840
COc1cc(-c2coc3cc(-c4cn(C)nn4)ccc23)cc2c1C(=O)N(CC(F)(F)F)CC2 [Compound 17, 8-methoxy-6-(6-(1-methyl-1H-1,2,3-triazol-4-yl)benzofuran-3-yl)-2-(2,2,2-trifluoroethyl)-3,4-dihydroisoquinolin-1 (2H)-one] | 2310 | 28 | 79
COc1cc(-c2coc3cc(-c4cn(C)nc4C#N)ccc23)cc2c1C(=O)N(CC(F)(F)F)CC2 [Compound 18, 4-(3-(8-methoxy-1-oxo-2-(2,2,2-trifluoroethyl)-1,2,3,4-tetrahydroisoquinolin-6-yl)benzofuran-6-yl)-1-methyl-1H-pyrazole-3-carbonitrile] | > 10000 | 214 | 237
COc1cc(-c2coc3cc(-c4cn(C)nc4OC)ccc23)cc2c1C(=O)N(CC(F)(F)F)CC2 [Compound 19, 8-methoxy-6-(6-(3-methoxy-1-methyl-1H-pyrazol-4-yl)benzofuran-3-yl)-2-(2,2,2-trifluoroethyl)-3,4-dihydroisoquinolin-1 (2H)-one] | 3130 | 80 | 132
COc1cc(-c2coc3cc(-c4cnn(C)c4)ccc23)cc2c1C(=O)N(CC#N)CC2 [Compound 20, 2-(8-methoxy-6-(6-(1-methyl-1H-pyrazol-4-yl)benzofuran-3-yl)-1-oxo-3,4-dihydroisoquinolin-2 (1H)-yl) acetonitrile] | 362 | 12 | 14
Cn1cc(-c2ccc3c(-c4cc5c(c(OC(F)F)c4)C(=O)N(CC#N)CC5)coc3c2)cn1 [Compound 21, 2-(8-(difluoromethoxy)-6-(6-(1-methyl-1H-pyrazol-4-yl)benzofuran-3-yl)-1-oxo-3,4-dihydroisoquinolin-2 (1H)-yl) acetonitrile] | 289 | 11 | 15
COc1cc(-c2coc3cc(-c4cn(C)nc4F)ccc23)cc2c1C(=O)N(CC(F)(F)F)CC2 [Compound 22, 6-(6-(3-fluoro-1-methyl-1H-pyrazol-4-yl)benzofuran-3-yl)-8-methoxy-2-(2,2,2-trifluoroethyl)-3,4-dihydroisoquinolin-1 (2H)-one] | 5920 | 79 | 127
COc1cc(-c2coc3cc(-c4cn(C)nc4Cl)ccc23)cc2c1C(=O)N(CC(F)(F)F)CC2 [Compound 23, 6-(6-(3-chloro-1-methyl-1H-pyrazol-4-yl)benzofuran-3-yl)-8-methoxy-2-(2,2,2-trifluoroethyl)-3,4-dihydroisoquinolin-1 (2H)-one] | > 10000 | 223 | 387
Cn1cc(-c2ccc3c(-c4cc5c(c(OC(F)F)c4)C(=O)N(CC(N)=O)CC5)coc3c2)cn1 [Compound 24, 2-(8-(difluoromethoxy)-6-(6-(1-methyl-1H-pyrazol-4-yl)benzofuran-3-yl)-1-oxo-3,4-dihydroisoquinolin-2 (1H)-yl) acetamide] | 3340 | 281 | 320
COc1cc(-c2coc3cc(-c4cnn(C)c4)ccc23)cc(OC(F)F)c1C(=O)NCC(F)(F)F [Compound 25, 2-(difluoromethoxy)-6-methoxy-4-(6-(1-methyl-1H-pyrazol-4-yl)benzofuran-3-yl)-N-(2,2,2-trifluoroethyl)benzamide] | 195 | 15 | 26
COc1cc(-c2coc3cc(-c4cnn(C)c4)ccc23)cc(OC(F)F)c1C(=O)N[C@@H]1C[C@@H]1F [Compound 26, 2-(difluoromethoxy)-N-((1R,2S)-2-fluorocyclopropyl)-6-methoxy-4-(6-(1-methyl-1H-pyrazol-4-yl)benzofuran-3-yl)benzamide] | 33 | 3.4 | 5
COc1cc(-c2coc3cc(-c4cnn(C)c4)ccc23)cc2c1C(=O)N(C1CC1)CC2 [Compound 27, 2-cyclopropyl-8-methoxy-6-(6-(1-methyl-1H-pyrazol-4-yl)benzofuran-3-yl)-3,4-dihydroisoquinolin-1 (2H)-one] | 1130 | 34 | 72
